According to patent US20210246109A1, “POTENT AND SELECTIVE INHIBITORS OF CYTOCHROME P450” (University of Kentucky Research Foundation, priority 2020, published 2021):
Several values for one entry are separate records, joined by “and”; a condition that tells them apart may be missing. Identical values can stand only once. Like-named read-outs stand apart in the source and are kept apart here.

What was measured:
[1] = system: HEK; experiment: Cytotoxicity, resazurin, 72 hours after compound addition; type: cell-based
Procedure: Cytotoxicity was assessed at 72 hours after compound addition using resazurin. The compounds that function as selective 1B1 inhibitors had no effect on cell health. This is an essential feature for any chemopreventative agent or molecules intended to block the detrimental action of an enzyme.

[2] = molecular target: T1, CYP1B1 (Homo sapiens, UniProt Q16678); experiment: EROD assay in inducible CYP1B1 cell line; type: cell-based
T1 construct: expressed in transfected cells
T1 sequence (Q16678 1-543): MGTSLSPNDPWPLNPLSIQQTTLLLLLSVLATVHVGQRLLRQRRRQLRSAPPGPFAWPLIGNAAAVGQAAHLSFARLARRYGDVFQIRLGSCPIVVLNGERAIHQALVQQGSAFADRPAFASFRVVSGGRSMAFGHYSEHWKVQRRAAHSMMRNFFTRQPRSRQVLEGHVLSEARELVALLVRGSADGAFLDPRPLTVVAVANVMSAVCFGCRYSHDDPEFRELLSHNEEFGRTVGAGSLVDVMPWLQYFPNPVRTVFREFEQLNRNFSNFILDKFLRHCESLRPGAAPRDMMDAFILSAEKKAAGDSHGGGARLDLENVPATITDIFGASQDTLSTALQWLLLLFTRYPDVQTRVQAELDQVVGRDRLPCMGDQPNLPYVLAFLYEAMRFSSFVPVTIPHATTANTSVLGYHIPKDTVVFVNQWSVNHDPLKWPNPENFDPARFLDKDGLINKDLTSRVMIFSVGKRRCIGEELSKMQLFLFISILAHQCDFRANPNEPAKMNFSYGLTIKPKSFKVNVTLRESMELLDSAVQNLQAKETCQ
Procedure: (§1) The activity of the inhibitors was assessed in a novel cell based assay generated for the purpose of this project. Enzymatic turnover of CYP1B1 was measured using the ethoxy-resorufin-O-deethylase (EROD) assay with the fluorescent substrate, resorufin ethyl ether. Cell lines were generated where the gene for CYP1B1 alone or CYP1B1 and cytochrome P450 reductase (CPR) were both under the control of an inducible promoter. A cell line was generated for counter screening where the gene for CYP1A1 was used. CYP1A1 is the closest family member to CYP1B1.

[3] = molecular target: T2, CYP1A1 (Homo sapiens, UniProt P04798); experiment: EROD assay in CYP1A1 counter-screen cell line; type: cell-based; details: for SI 1B1:1A1: selectivity index
T2 construct: expressed in transfected cells
T2 sequence (P04798 1-512): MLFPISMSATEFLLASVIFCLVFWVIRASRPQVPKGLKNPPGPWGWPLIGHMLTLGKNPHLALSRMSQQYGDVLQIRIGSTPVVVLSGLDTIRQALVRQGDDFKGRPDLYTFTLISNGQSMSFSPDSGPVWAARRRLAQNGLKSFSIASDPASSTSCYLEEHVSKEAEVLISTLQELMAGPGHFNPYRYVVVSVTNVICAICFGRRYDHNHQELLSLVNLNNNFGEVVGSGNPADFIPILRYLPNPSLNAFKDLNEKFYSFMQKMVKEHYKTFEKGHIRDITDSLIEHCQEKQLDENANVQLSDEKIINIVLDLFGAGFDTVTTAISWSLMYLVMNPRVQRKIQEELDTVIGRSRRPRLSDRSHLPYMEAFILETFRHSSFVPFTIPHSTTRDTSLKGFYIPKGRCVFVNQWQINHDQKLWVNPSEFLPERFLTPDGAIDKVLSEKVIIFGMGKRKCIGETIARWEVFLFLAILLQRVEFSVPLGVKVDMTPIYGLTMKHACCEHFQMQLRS
Procedure: as §1

[4] = molecular target: T3, pooled human liver microsomes (pHLMs) (Homo sapiens, UniProt P05177); experiment: EROD counterscreen in pooled human liver microsomes; type: biochemical; details: for IC50: human, microsomes, Table 3, read-out: IC50 pHLM; for SI 1B1:HLM: selectivity index
T3 sequence (P05177 2-516): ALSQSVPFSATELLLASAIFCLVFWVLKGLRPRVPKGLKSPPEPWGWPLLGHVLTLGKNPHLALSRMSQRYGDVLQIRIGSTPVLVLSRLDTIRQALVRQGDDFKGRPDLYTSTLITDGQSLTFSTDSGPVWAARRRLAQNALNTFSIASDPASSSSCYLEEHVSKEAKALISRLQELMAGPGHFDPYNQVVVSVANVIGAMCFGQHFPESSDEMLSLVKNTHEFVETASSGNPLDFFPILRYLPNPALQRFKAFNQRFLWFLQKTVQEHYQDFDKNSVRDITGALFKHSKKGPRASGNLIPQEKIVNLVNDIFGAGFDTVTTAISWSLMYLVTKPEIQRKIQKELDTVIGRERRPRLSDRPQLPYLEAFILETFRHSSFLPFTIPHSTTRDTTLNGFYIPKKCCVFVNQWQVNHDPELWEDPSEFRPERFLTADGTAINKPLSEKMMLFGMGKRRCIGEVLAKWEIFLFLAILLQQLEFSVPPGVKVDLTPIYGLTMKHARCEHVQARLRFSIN
Text: (§2) Human liver microsomes were used as a counterscreen to experimentally determine the magnitude of inhibitor selectivity.

[5] = molecular target: T3, pooled human liver microsomes (pHLMs); experiment: as above; type: biochemical; design: IC50 pHLM; EROD assay; details: human, microsomes, Table 2; EROD assay
Text: as §2

[6] = Table 1, 72 hours, resazurin, read-out: Cytotoxicity IC50
[7] = Table 3, HEK, read-out: HEK cytotoxicity
[8] = human, probe resorufin ethyl ether, Table 3, read-out: IC50 1A1
[9] = Table 2, EROD assay, read-out: IC50 CYP1B1
[10] = Table 2, EROD assay, read-out: IC50 CYP1A1

Compound	IC50 ([2]; Table 3, read-out: IC50 1B1)	IC50 ([3]; Table 3, read-out: IC50 1A1)	IC50 [4]	HEK cell viability % at 10 μM ([1]; Table 3, HEK)	also measured
O=c1cc(-c2ccccc2)oc2c1ccc1ccccc12 [ANF, reference compound]					IC50 [1, 6]: > 10000 nM; IC50 [1, 7]: > 10000 nM
COc1ccc(/C=C/c2cnccn2)c(OC)c1 [GL435]	510 nM	2600 nM	1570 ± 290 nM	71.4%	
COc1cc(/C=C/c2cnccn2)cc(OC)c1 [GL437]	660 nM	4280 nM and 3290 nM	5270 ± 1600 nM	103.1%	
COc1cc(/C=C/c2ccncn2)cc(OC)c1 [GL443]	760 nM	> 10000 nM	2300 ± 980 nM	105.2%	
COc1cc(OC)c(/C=C/c2ccncn2)c(OC)c1 [GL456]	210 nM	> 10000 nM	150 ± 80 nM	93.6%	IC50 [3, 8]: 10000 nM
COc1ccc(/C=C/c2cccnc2)c(OC)c1 [GL457]	310 nM	403 nM and 360 nM	420 ± 240 nM	91.5%	
COc1ccc(/C=C/c2cncnc2)c(OC)c1 [GL458]	2510 nM	4130 nM and 2500 nM	2260 ± 1050 nM	95.8%	
COc1ccc(/C=C/c2cc[n+](C)cn2)c(OC)c1.[I-] [GL461]	13900 nM	> 10000 nM		103%	
COc1cc(/C=C/c2ccncn2)cc(OC)c1OC [GL465]	260 nM	730 nM and 740 nM	4400 ± 1710 nM	83.4%	
COc1ccc(/C=C/c2ccccc2)c(OC)c1 [GL469]		4460 nM and > 10000 nM	6000 nM	124.2%	
C#CCOc1ccc(/C=C/c2ccncn2)cc1 [GL508]	105 nM	5600 nM	32900 nM	93.4%	IC50 [3, 8]: 10000 nM
N#CCOc1ccc(-c2nc3ccccc3[nH]2)cc1 [GL509]		5500 nM and 3500 nM	8360 nM	75%	
O=c1[nH]c(-c2ccc(OC/C(I)=C\I)cc2)nc2ccccc12 [GL511]	11.8 nM	> 10000 nM	7710 nM	64.3%	
COc1ccc(-c2nc(O)c3ccccc3n2)c(OC)c1 [GL512]	11.6 nM	2400 nM and 1040 nM	16900 nM	85.3%	
COc1ccc(-c2nc3ccc(I)cc3c(=O)[nH]2)c(OC)c1 [GL513]	36 nM	121 nM and 75 nM and 91 nM	26200 nM	83.4%	
C#CCn1c(-c2ccc(OC)cc2OC)nc2ccc(I)cc2c1=O [GL514]	660 nM	4420 nM and 3500 nM	105000 nM	72.5%	
C#CCOc1ccc(-c2nc3ccc(I)cc3c(=O)[nH]2)cc1 [GL516]	14 nM	4580 nM and 2460 nM and 1900 nM	126000 nM	40.8%	
COc1ccc(-c2nc3ccccc3c(=O)n2C)c(OC)c1 [GL517]	> 500 nM	> 10000 nM	146000 nM	107%	
COc1ccc(-c2nc3ccccc3c(=O)n2CC#N)c(OC)c1 [GL519]	970 nM	> 10000 nM		88.7%	
N#CCOc1ccc(-c2nc3ccccc3c(=O)[nH]2)cc1 [GL520]	0.88 nM and 0.92 nM	2570 nM	1740 nM	89%	
COc1cc(-c2nc3ccccc3c(=O)[nH]2)ccc1OCC#N [GL522]		2270 nM and 970 nM	> 10000 nM	80.6%	
N#CCOc1ccc(-c2nc3ccccc3[nH]2)cc1 [GL523]		> 10000 nM		93.4%	
COc1ccc(-c2csc(-c3ccc(O)cc3)n2)c(OC)c1 [GL650]					IC50 [2, 9]: 61.9 nM; IC50 [3, 10]: 1960 nM; SI 1B1:1A1 [3]: 32; SI 1B1:HLM [4]: 89.7; IC50 [5]: 5550 nM
COc1ccc(-c2csc(-c3cccnc3)n2)c(OC)c1 [GL654]					IC50 [2, 9]: 19.8 nM; IC50 [3, 10]: 151 nM; SI 1B1:1A1 [3]: 7.6; SI 1B1:HLM [4]: 0.00082; IC50 [5]: 0.1 nM
Oc1ccc(-c2csc(-c3cccnc3)n2)cc1 [GL671]					IC50 [2, 9]: 2230 nM; IC50 [3, 10]: 1410 nM; SI 1B1:1A1 [3]: 0.63; SI 1B1:HLM [4]: 0.024; IC50 [5]: 526 nM
Oc1ccc(-c2csc(-c3ccccn3)n2)cc1 [GL672]					IC50 [2, 9]: 1020 nM; IC50 [3, 10]: 1320 nM; SI 1B1:1A1 [3]: 1.3; SI 1B1:HLM [4]: 1.63; IC50 [5]: 1650 nM
COc1ccc(-c2nc(-c3ccc(F)c(C(F)(F)F)c3)cs2)c(OC)c1 [GL674]					IC50 [2, 9]: 0.98 nM; IC50 [3, 10]: 5080 nM; SI 1B1:1A1 [3]: 5187; SI 1B1:HLM [4]: >10204; IC50 [5]: > 10000 nM
COc1cc(OC)cc(-c2nc(-c3ccc(F)cc3)cs2)c1 [GL683]					IC50 [2, 9]: < 0.01 nM; IC50 [5]: > 10000 nM
COc1cc(/C=C/c2ccc(OC)cc2OC)cc(OC)c1 [TMS, reference compound]					IC50 ([2]; Table 1, read-out: CYP1B1 IC50): 8.3 nM; IC50 [1, 6]: 10000 nM; IC50 [1, 7]: > 10000 nM
